≈ marks a conversion by molar mass, not a printed value. Blank lines part the entries; values can stand above or below the compound they belong to.
Experiments:
[1] = target: Cyclin-dependent kinase 1 (Homo sapiens, UniProt P06493)
[2] = target: Cyclin-dependent kinase 2 (Homo sapiens, UniProt P24941); assay: Inhibition of CDK2 (unknown origin)
[3] = target: Cyclin-dependent kinase 5 (Homo sapiens, UniProt Q00535)
[4] = target: Cyclin-dependent kinase 4 (Homo sapiens, UniProt P11802); assay: Inhibition of CDK4 (unknown origin)
Cyclin-dependent kinase 4, sequence (P11802 whole entry): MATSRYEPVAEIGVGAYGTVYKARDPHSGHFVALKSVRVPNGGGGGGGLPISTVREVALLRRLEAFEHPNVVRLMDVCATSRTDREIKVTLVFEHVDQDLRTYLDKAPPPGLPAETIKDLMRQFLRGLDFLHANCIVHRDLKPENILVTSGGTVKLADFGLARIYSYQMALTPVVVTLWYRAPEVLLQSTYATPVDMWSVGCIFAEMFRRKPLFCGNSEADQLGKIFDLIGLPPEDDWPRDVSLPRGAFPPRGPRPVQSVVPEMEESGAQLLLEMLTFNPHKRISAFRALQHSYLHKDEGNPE

[5] = target: Cyclin-dependent kinase 3 (Homo sapiens, UniProt Q00526); assay: Inhibition of CDK3 (unknown origin)
Cyclin-dependent kinase 3, sequence (Q00526 whole entry): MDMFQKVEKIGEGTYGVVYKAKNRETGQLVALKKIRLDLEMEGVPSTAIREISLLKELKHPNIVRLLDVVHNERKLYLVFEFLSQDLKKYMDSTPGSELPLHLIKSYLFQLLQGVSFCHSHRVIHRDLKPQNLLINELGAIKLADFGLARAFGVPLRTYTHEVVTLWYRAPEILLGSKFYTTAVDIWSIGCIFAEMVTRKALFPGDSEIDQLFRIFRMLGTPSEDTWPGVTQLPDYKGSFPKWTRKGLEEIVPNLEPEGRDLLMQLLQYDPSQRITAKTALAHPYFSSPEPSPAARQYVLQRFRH

[6] = tested on: NCI-H69; assay: Antiproliferative activity against human NCI-H69 cells assessed as inhibition of cell growth incubated for 72 hrs by CCK8 assay; format: functional, cell-based; details: NCI-H69, 72 h
[7] = tested on: NCI-H446; assay: Antiproliferative activity against human NCI-H446 cells assessed as inhibition of cell growth incubated for 72 hrs by CCK8 assay; format: functional, cell-based; details: NCI-H446, 72 h
[8] = target: Protein cereblon/Cyclin-dependent kinase 9 (Homo sapiens, UniProt P50750+Q96SW2); assay: PROTAC activity at CRBN/CDK9 in human NCI-H69 cells assessed as induction of CDK9 degradation incubated for 8 hrs by Western blot analysis; format: cell-based
Protein cereblon/Cyclin-dependent kinase 9, sequence (P50750 whole entry): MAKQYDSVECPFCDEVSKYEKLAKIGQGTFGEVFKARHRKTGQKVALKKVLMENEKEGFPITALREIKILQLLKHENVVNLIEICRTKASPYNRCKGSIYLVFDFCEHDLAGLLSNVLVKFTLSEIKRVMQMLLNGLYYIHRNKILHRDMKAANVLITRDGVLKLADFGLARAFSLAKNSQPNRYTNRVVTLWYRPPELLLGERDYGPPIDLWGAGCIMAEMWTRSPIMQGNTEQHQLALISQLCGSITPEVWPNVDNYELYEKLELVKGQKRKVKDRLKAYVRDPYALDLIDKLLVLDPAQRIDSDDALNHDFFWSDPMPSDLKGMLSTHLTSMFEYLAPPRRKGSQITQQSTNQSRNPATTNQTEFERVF
Protein cereblon/Cyclin-dependent kinase 9, sequence (Q96SW2 whole entry): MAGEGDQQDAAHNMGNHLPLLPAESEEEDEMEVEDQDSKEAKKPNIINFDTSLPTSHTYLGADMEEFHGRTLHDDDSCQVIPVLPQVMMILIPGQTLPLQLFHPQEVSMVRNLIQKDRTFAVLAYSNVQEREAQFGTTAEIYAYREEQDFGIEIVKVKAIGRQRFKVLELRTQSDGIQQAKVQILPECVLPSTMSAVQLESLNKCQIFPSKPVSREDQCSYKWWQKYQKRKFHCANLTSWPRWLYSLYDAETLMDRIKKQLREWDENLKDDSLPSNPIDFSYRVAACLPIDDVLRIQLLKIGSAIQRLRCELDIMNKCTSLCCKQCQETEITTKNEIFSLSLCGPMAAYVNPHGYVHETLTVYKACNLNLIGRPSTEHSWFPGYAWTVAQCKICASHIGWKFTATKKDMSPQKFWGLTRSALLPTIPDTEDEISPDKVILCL

[9] = Metabolic stability in mouse liver microsomes assessed as parent compound remaining measured after 60 mins; format: ADME, Microsome; details: read-out: Stability
[10] = Metabolic stability in mouse liver microsomes assessed as half-life; format: ADME, Microsome; details: liver microsomes
[11] = Metabolic stability in mouse liver microsomes assessed as intrinsic clearance; format: ADME, Microsome; details: liver microsomes, read-out: CLH
[12] = Metabolic stability in human liver microsomes assessed as parent compound remaining measured after 60 mins; format: ADME, Microsome; details: read-out: Stability
[13] = Metabolic stability in human liver microsomes assessed as half-life; format: ADME, Microsome; details: liver microsomes
[14] = Metabolic stability in human liver microsomes assessed as intrinsic clearance; format: ADME, Microsome; details: liver microsomes, read-out: CLH
[15] = Apparent permeability across apical to basolateral side in human Caco-2 cells at 2 uM measured after 60 mins by HPLC analysis; format: ADME, cell-based
[16] = Apparent permeability across basolateral to apical side in human Caco-2 cells at 2 uM measured after 60 mins by HPLC analysis; format: ADME, cell-based
[17] = Efflux ratio of apparent permeability across basolateral to apical over apical to basolateral side in human Caco-2 cells at 2 uM measured after 60 mins by HPLC analysis; format: ADME, cell-based
[18] = Kinetic solubility of compound in FeSSIF buffer incubated for 2 hrs by LC-MS/MS analysis; format: physicochemical; details: read-out: Kinetic_solubility
[19] = Half-life in mouse at 5 mg/kg, iv; format: ADME, organism-based; details: in vivo
[20] = Cmax in mouse at 5 mg/kg, iv; format: ADME, organism-based; details: in vivo
[21] = AUC (0 to 24 hrs) in mouse at 5 mg/kg, iv; format: ADME, organism-based; details: in vivo
[22] = AUC (0 to infinity) in mouse at 5 mg/kg, iv; format: ADME, organism-based; details: in vivo
[23] = Half-life in mouse at 25 mg/kg, po; format: ADME, organism-based; details: in vivo
[24] = Cmax in mouse at 25 mg/kg, po; format: ADME, organism-based; details: in vivo
[25] = AUC (0 to 24 hrs) in mouse at 25 mg/kg, po; format: ADME, organism-based; details: in vivo
[26] = AUC (0 to infinity) in mouse at 25 mg/kg, po; format: ADME, organism-based; details: in vivo
[27] = Oral bioavailability in mouse at 25 mg/kg; format: ADME, organism-based; details: in vivo
[28] = Half-life in Sprague-Dawley rat at 5 mg/kg, iv measured after 12 hrs by LC-MS/MS analysis; format: ADME, organism-based; details: in vivo
[29] = Cmax in Sprague-Dawley rat at 5 mg/kg, iv measured after 12 hrs by LC-MS/MS analysis; format: ADME, organism-based; details: in vivo
[30] = AUC (0 to 24 hrs) in Sprague-Dawley rat at 5 mg/kg, iv measured after 12 hrs by LC-MS/MS analysis; format: ADME, organism-based; details: in vivo
[31] = AUC (0 to infinity) in Sprague-Dawley rat at 5 mg/kg, iv measured after 12 hrs by LC-MS/MS analysis; format: ADME, organism-based; details: in vivo
[32] = Half-life in Sprague-Dawley rat at 25 mg/kg, po measured after 12 hrs by LC-MS/MS analysis; format: ADME, organism-based; details: in vivo
[33] = Cmax in Sprague-Dawley rat at 25 mg/kg, po measured after 12 hrs by LC-MS/MS analysis; format: ADME, organism-based; details: in vivo
[34] = AUC (0 to 24 hrs) in Sprague-Dawley rat at 25 mg/kg, po measured after 12 hrs by LC-MS/MS analysis; format: ADME, organism-based; details: in vivo
[35] = AUC (0 to infinity) in Sprague-Dawley rat at 25 mg/kg, po measured after 12 hrs by LC-MS/MS analysis; format: ADME, organism-based; details: in vivo
[36] = Oral bioavailability in Sprague-Dawley rat at 25 mg/kg measured after 12 hrs by LC-MS/MS analysis; format: ADME, organism-based; details: in vivo
[37] = tested on: NCI-H146; assay: Antiproliferative activity against human NCI-H146 cells assessed as inhibition of cell growth incubated for 72 hrs by CCK8 assay; format: functional, cell-based; details: NCI-H146, 72 h
[38] = tested on: NCI-H524; assay: Antiproliferative activity against human NCI-H524 cells assessed as inhibition of cell growth incubated for 72 hrs by CCK8 assay; format: functional, cell-based; details: NCI-H524, 72 h
[39] = tested on: DMS-114; assay: Antiproliferative activity against human DMS-114 cells assessed as inhibition of cell growth incubated for 72 hrs by CCK8 assay; format: functional, cell-based; details: DMS-114, 72 h
[40] = Cytotoxicity against human MCF-10A cells assessed as inhibition of cell growth incubated for 72 hrs by CCK8 assay; format: toxicity, cell-based
[41] = Cytotoxicity against human BEAS-2B cells assessed as inhibition of cell growth incubated for 72 hrs by CCK8 assay; format: toxicity, cell-based
[42] = Cytotoxicity against human L02 cells assessed as inhibition of cell growth incubated for 72 hrs by CCK8 assay; format: toxicity, cell-based
[43] = Cytotoxicity against HEK293T cells assessed as inhibition of cell growth incubated for 72 hrs by CCK8 assay; format: toxicity, cell-based, HEK-293T; details: human
[44] = target: Voltage-gated inwardly rectifying potassium channel KCNH2 (Homo sapiens, UniProt Q12809); assay: Inhibition of human ERG expressed in HEK293 cells by manual-patch clamp assay; format: toxicity, cell-based
Voltage-gated inwardly rectifying potassium channel KCNH2, sequence (Q12809 whole entry): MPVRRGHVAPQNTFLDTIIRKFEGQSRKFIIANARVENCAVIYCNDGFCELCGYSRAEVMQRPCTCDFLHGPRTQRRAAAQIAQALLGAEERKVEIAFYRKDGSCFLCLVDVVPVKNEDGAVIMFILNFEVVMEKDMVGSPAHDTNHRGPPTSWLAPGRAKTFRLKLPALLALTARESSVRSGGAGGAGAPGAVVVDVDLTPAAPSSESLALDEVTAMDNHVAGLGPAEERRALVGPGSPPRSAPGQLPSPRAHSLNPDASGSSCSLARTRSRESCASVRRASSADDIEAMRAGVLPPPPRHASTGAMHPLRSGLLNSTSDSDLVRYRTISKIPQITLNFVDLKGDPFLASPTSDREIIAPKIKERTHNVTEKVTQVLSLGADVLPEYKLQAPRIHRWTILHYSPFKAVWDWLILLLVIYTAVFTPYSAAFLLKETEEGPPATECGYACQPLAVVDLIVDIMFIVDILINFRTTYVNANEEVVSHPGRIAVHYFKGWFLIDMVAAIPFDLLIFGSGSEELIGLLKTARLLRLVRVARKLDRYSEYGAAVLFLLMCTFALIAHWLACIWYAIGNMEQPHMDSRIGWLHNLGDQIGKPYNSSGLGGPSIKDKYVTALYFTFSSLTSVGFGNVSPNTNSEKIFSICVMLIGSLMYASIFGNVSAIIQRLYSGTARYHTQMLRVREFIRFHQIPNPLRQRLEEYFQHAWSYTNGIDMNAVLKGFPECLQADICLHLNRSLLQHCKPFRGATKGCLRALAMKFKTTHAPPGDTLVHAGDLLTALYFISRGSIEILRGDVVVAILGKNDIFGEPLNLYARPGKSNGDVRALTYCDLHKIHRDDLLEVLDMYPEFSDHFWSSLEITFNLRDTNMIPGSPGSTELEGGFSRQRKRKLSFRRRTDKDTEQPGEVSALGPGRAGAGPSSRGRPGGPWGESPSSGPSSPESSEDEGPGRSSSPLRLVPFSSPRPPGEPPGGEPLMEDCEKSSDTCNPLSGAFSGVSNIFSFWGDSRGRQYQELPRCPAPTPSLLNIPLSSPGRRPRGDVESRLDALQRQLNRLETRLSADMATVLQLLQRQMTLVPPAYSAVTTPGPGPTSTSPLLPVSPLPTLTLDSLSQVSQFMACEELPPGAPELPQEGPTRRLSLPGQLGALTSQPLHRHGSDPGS

[45] = tested on: Mus musculus; assay: Hematotoxicity in mouse assessed as effect on WBC count at 12.5 to 25 mg/kg, po administered daily for 14 days; format: toxicity, organism-based; details: in vivo, 336 h, dose 12.5-25 mg/kg, time 14 day
[46] = tested on: Mus musculus; assay: Hematotoxicity in mouse assessed as effect on platelet count at 12.5 to 25 mg/kg, po administered daily for 14 days; format: toxicity, organism-based; details: in vivo, 336 h, dose 12.5-25 mg/kg, time 14 day
[47] = Toxicity in mouse assessed as pathological changes in heart at 12.5 to 25 mg/kg, po administered daily for 14 days by H and E staining based analysis; format: organism-based; details: in vivo, 336 h, dose 12.5-25 mg/kg, time 14 day
[48] = Toxicity in mouse assessed as pathological changes in liver at 12.5 to 25 mg/kg, po administered daily for 14 days by H and E staining based analysis; format: organism-based; details: in vivo, 336 h, dose 12.5-25 mg/kg, time 14 day
[49] = Toxicity in mouse assessed as pathological changes in lung at 12.5 to 25 mg/kg, po administered daily for 14 days by H and E staining based analysis; format: organism-based; details: in vivo, 336 h, dose 12.5-25 mg/kg, time 14 day
[50] = Toxicity in mouse assessed as pathological changes in spleen at 12.5 to 25 mg/kg, po administered daily for 14 days by H and E staining based analysis; format: organism-based; details: in vivo, 336 h, dose 12.5-25 mg/kg, time 14 day
[51] = Toxicity in mouse assessed as pathological changes in kidney at 12.5 to 25 mg/kg, po administered daily for 14 days by H and E staining based analysis; format: organism-based; details: in vivo, 336 h, dose 12.5-25 mg/kg, time 14 day
[52] = tested on: NCI-H446; assay: Antitumor activity against human NCI-H446 cells xenografted in female NU-NU mouse model assessed as tumor growth inhibition at 12.5 mg/kg, po administered once daily for 15 days relative to control; format: functional; details: NCI-H446, 360 h, time 15 day, read-out: TGI
[53] = tested on: NCI-H446; assay: Antitumor activity against human NCI-H446 cells xenografted in female NU-NU mouse model assessed as tumor growth inhibition at 25 mg/kg, po administered once daily for 15 days relative to control; format: functional; details: NCI-H446, 360 h, time 15 day, read-out: TGI
[54] = tested on: Mus musculus; assay: Toxicity in female NU/NU mouse model xenografted with human NCI-H446 cells assessed as effect on body weight at 12.5 to 25 mg/kg, po administered once daily for 15 days; format: organism-based; details: in vivo, 360 h, dose 12.5-25 mg/kg, time 15 day
[55] = tested on: Mus musculus; assay: Toxicity in female NU/NU mouse model xenografted with human NCI-H446 cells expressing luciferase-GFP assessed as effect on body weight at 12.5 to 25 mg/kg, po administered for 19 days; format: organism-based; details: in vivo, 456 h, dose 12.5-25 mg/kg, time 19 day

Cyclin-dependent kinase 5, sequence (Q00535 whole entry): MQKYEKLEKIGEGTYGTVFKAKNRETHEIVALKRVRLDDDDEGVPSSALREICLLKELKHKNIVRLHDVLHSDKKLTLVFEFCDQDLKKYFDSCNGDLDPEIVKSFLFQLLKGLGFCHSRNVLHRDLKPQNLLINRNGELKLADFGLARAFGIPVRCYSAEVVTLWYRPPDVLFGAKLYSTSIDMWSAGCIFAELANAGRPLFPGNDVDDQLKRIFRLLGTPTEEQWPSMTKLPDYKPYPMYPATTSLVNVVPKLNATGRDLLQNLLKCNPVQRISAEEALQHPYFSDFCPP
Cyclin-dependent kinase 1, sequence (P06493 whole entry): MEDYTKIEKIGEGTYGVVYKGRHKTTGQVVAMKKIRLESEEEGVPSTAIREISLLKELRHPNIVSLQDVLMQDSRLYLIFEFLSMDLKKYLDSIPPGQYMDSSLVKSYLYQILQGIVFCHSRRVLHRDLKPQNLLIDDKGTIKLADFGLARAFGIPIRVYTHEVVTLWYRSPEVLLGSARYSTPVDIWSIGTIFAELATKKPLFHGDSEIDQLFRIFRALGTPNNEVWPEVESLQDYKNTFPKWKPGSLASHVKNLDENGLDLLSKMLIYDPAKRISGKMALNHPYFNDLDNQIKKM

IC50 [1]: < 5 nM | IC50 [2]: < 5 nM | IC50 [3]: < 5 nM | IC50 [4]: < 5 nM | IC50 [5]: < 5 nM
SMILES: COCCN1CCN(Cc2ccc(-c3n[nH]c4c3C(=O)c3c(NC(=O)NN5CCOCC5)cccc3-4)cc2)CC1 [RGB-286638]

IC50 [6]: 1.03 nM | IC50 [7]: 1.01 nM | DC50 [8]: 1.09 nM | remaining at 1 h [9]: 82.8% | half-life [10]: 2.42 h | microsomal CLint [11]: 9.4 µL/min/mg | remaining at 1 h [12]: 76.2% | half-life [13]: 1.77 h | microsomal CLint [14]: 11 µL/min/mg | Papp A→B at 1 h, 2 µM [15]: 1.81 ×10⁻⁶ cm/s | Papp B→A at 1 h, 2 µM [16]: 9.47 ×10⁻⁶ cm/s | efflux ratio at 1 h, 2 µM [17]: 5.2 | solubility kinetic at 2 h [18]: 234 µM (≈ 189 µg/mL) | half-life [19]: 8.2 h | Cmax [20]: 2600 ng/mL | AUC(0-t) [21]: 2660 ng·h/mL | AUC(0-inf) [22]: 2860 ng·h/mL | half-life [23]: 4.7 h | Cmax [24]: 277 ng/mL | AUC(0-t) [25]: 951 ng·h/mL | AUC(0-inf) [26]: 971 ng·h/mL | bioavailability [27]: 6.8% | half-life [28]: 2.8 h | Cmax [29]: 2000 ng/mL | AUC(0-t) at 12 h [30]: 2180 ng·h/mL | AUC(0-inf) [31]: 2330 ng·h/mL | half-life [32]: 5.4 h | Cmax [33]: 179 ng/mL | AUC(0-t) at 12 h [34]: 714 ng·h/mL | AUC(0-inf) [35]: 893 ng·h/mL | bioavailability [36]: 6.5% | IC50 [37]: 0.53 nM | IC50 [38]: 0.53 nM
SMILES: O=C1CCC(Nc2cccc(N3CCN(CC4CCN(CC(=O)N5CCC(NC(=O)c6n[nH]cc6NC(=O)c6c(Cl)cccc6Cl)CC5)CC4)CC3)c2)C(=O)N1 (stereo not given)
IC50 [39]: 0.53 nM | IC50 at 72 h [40]: 126 nM | IC50 at 72 h [41]: 413 nM | IC50 at 72 h [42]: 70 nM | IC50 at 72 h [43]: 95 nM | IC50 [44]: > 30000 nM | Activity [45]: Non-toxic | Activity [46]: Non-toxic | Activity [47]: Minimal_effect | Activity [48]: Minimal_effect | Activity [49]: Minimal_effect | Activity [50]: Minimal_effect | Activity [51]: Minimal_effect | inhibition in vivo at 12.5 mg/kg [52]: 79.2% | inhibition in vivo at 25 mg/kg [53]: 84.8% | Activity [54]: Non-toxic | Activity [55]: Non-toxic

— ChEMBL document CHEMBL6121063, “Identification of a Potent and Selective CDK9 Degrader as a Targeted Therapeutic Option for the Treatment of Small-Cell Lung Cancer” (J Med Chem, 2025)
